Converted amounts (≈) assume the structure as drawn.
Legend:
[1] = tested on: Mycobacterium tuberculosis; assay: Antitubercular activity against Mycobacterium tuberculosis H37Rv incubated for 6 days by resazurin dye based fluorescence assay; format: functional; settings: 144 h
[2] = Cytotoxicity against human HepG2 cells incubated for 48 hrs by CellTiter Glo assay; format: cell-based
[3] = Protection Index, ratio of CC50 for human HepG2 cells to MIC for Mycobacterium tuberculosis H37Rv; format: toxicity; settings: read-out: PI
[4] = Chromatographic lipophilicity, log D of compound in PBS ay pH 7.4 by UV-HPLC analysis; format: physicochemical; settings: for chromatographic logD: PBS
[5] = target: Albumin (Homo sapiens, UniProt P02768); assay: Binding affinity to HSA by HPLC analysis; format: ADME; settings: isolated protein
[6] = Kinetic solubility of the compound in pH 7.4 phosphate buffered saline; format: physicochemical; settings: read-out: Kinetic_solubility
[7] = target: Voltage-gated inwardly rectifying potassium channel KCNH2 (Homo sapiens, UniProt Q12809); assay: Inhibition of human ERG
[8] = Permeability of the compound in pH 7.05 phosphate buffer incubated for 3 hrs by artificial membrane permeability assay based LCMS analysis; format: ADME; settings: PAMPA, read-out: permeability
[9] = Solubility of the compound in FASSIF at 1 mg incubated for 4 hrs by UPLC-MS analysis; format: physicochemical
[10] = tested on: Mycobacterium tuberculosis; assay: Antitubercular activity against Mycobacterium tuberculosis H37Rv infected in C57BL/6 mouse assessed as reduction in bacterial load in lungs at 200 mg/kg administered once daily starting from 5 days post infection for 4 consecutive days and measured on day 9; format: functional
[11] = Intrinsic clearance in human liver microsomes at 0.5 uM measured up to 30 mins in presence of NADPH by UPLC/MS/MS analysis; format: ADME, Microsome; settings: 0.5 h

Voltage-gated inwardly rectifying potassium channel KCNH2, sequence (Q12809 whole entry): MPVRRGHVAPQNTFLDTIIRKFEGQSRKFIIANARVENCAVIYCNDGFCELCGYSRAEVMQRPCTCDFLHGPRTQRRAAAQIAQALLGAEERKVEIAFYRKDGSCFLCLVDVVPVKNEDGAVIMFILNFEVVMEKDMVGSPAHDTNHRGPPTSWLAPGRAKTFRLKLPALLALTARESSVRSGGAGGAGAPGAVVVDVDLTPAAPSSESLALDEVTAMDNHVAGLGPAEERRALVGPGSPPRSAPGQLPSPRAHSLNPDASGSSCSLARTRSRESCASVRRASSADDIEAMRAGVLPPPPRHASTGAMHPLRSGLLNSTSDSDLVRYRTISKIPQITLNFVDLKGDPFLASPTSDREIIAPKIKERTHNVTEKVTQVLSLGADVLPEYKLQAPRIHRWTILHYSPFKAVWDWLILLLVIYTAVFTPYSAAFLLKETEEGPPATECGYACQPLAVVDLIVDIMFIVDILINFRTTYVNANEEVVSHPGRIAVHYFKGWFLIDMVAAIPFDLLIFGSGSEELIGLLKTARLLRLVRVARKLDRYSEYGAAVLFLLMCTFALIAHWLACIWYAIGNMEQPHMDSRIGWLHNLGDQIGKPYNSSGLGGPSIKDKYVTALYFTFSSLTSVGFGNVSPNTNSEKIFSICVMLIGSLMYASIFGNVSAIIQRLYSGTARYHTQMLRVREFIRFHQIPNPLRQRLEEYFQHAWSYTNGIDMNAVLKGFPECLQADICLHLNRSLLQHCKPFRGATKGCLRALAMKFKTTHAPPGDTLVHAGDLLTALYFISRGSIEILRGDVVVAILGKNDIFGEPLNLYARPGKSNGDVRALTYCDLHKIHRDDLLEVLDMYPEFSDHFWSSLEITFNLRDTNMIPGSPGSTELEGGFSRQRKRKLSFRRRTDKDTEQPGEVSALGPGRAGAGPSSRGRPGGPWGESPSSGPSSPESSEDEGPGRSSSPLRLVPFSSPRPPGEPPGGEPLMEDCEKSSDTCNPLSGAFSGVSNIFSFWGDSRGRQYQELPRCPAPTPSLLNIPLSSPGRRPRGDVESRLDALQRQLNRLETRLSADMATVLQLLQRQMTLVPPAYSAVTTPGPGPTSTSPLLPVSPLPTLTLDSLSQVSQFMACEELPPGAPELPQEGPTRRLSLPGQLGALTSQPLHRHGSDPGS
Albumin, sequence (P02768 whole entry): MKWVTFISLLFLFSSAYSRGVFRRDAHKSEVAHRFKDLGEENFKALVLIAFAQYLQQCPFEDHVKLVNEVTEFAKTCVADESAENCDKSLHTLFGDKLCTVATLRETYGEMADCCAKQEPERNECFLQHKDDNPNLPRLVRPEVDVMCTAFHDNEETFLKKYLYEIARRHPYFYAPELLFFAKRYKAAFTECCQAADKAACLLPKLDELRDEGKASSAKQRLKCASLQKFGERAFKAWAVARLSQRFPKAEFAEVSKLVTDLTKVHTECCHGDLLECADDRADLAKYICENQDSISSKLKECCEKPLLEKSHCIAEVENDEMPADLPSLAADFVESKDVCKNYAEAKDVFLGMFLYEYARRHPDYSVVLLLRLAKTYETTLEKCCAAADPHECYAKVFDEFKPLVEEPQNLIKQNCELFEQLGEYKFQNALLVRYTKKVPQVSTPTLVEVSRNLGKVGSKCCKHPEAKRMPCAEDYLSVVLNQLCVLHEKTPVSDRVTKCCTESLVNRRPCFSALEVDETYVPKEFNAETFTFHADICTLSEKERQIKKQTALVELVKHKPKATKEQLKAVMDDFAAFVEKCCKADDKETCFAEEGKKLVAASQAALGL

| SMILES | MIC [1] [µM] | CC50 at 48 h [2] [µM] | selectivity ratio [3] | other results |
| --- | --- | --- | --- | --- |
| COC1CCN(Cc2cc(-c3ccc(C(C)C)cc3)n(C3CCCCC3)n2)CC1 | 0.6 (≈ 0.237 µg/mL) | 12.6 | 21 |  |
| Cc1ccc(-c2cc(CN3CCOCC3)nn2C2CCCCC2)cn1 | 50 (≈ 17 µg/mL) | > 100 | > 2 |  |
| CC(C)c1ccc(-c2cc(CN3CCN(C)CC3)nn2-c2ccc(F)cc2)cc1 | 20 (≈ 7.85 µg/mL) | 12.6 | 0.6 |  |
| COC1CCCN(Cc2cc(-c3ccc(C(C)C)cc3)n(-c3ccc(F)cc3)n2)C1 (stereo unspecified) | 2.4 (≈ 0.978 µg/mL) | 32 | 13 |  |
| COC1CCN(Cc2cc(-c3ccc(C(C)C)cc3)n(C3CCCOC3)n2)CC1 (stereo unspecified) | 2.5 (≈ 0.994 µg/mL) | 50 | 20 |  |
| FC(F)(F)c1ccc(-c2cc(CN3CCN(c4ccccn4)CC3)nn2C2CCCCC2)cc1 | 1 (≈ 0.47 µg/mL) | 50 | 50 |  |
| Fc1ccc(-n2nc(CN3CCSCC3)cc2-c2ccc(C(F)(F)F)cc2)cc1 | 4.7 (≈ 1.98 µg/mL) | 79.4 | 17 |  |
| NNC(=O)c1ccncc1 [ISONIAZID] | 1.8 (≈ 0.247 µg/mL) |  |  |  |
| CC(C)c1ccc(-c2cc(CN3CC[Si](C)(C)CC3)nn2-c2ccc(F)cc2)cc1 | 0.00925 (≈ 0.0039 µg/mL) | 12.6 | 1360 | chromatographic logD [4]: 8.82; Activity [5]: 97.49%; solubility kinetic [6]: 41 µM (≈ 17.3 µg/mL); IC50 [7]: 2 µM |
| Cc1c(CN2CCOCC2)nc(-c2ccc(C(C)C)cc2)n1-c1ccc(F)cc1 | 40 (≈ 15.7 µg/mL) | 50.1 | 1.25 |  |
| C[Si]1(C)CCN(Cc2cc(-c3ccc(C(F)(F)F)cc3)n(-c3ccc(F)cc3)n2)CC1 | 0.02 (≈ 0.00895 µg/mL) | 16 |  | chromatographic logD [4]: 8.13; Activity [5]: 96.65%; solubility kinetic [6]: 53 µM (≈ 23.7 µg/mL) |
| COC1CCN(Cc2nc(-c3ccc(C(C)C)cc3)n(-c3ccc(F)cc3)c2C)CC1 | 40 (≈ 16.9 µg/mL) |  |  |  |
| CC(C)c1ccc(-c2cc(CN3CCOCC3)nn2C2CCC2)cc1 | 0.4 (≈ 0.136 µg/mL) | 50 | 125 | chromatographic logD [4]: 7.37; Papp at 3 h [8]: 61 ×10⁻⁶ cm/s; Activity [5]: 96.72%; solubility kinetic [6]: 305 to 306 µM; solubility at 4 h [9]: 139 µg/mL (≈ 409 µM); IC50 [7]: 32 µM; Activity [10]: 0.3 log10CFU; CLH [11]: 2.8 mL/min/g |
| CC(C)c1ccc(-c2cc(CN3CCOCC3)nn2-c2ccc(F)cc2)cc1 | 5 (≈ 1.9 µg/mL) | 50.1 | 10 |  |
| CC(C)c1ccc(-c2cc(CN3CCN(c4ccccn4)CC3)nn2-c2ccc(F)cc2)cc1 | 0.5 (≈ 0.228 µg/mL) | 64 | 128 | chromatographic logD [4]: 8.76; Papp at 3 h [8]: < 3 ×10⁻⁶ cm/s; Activity [5]: 98.45%; solubility kinetic [6]: 6 µM (≈ 2.73 µg/mL); IC50 [7]: 25.1 µM |
| CC(C)c1ccc(-c2cc(CN3CCOCC3)nn2C2CCCOC2)cc1 (stereo unspecified) | 2 (≈ 0.739 µg/mL) | > 100 | > 50 |  |
| Fc1ccc(-n2nc(CN3CCCCC3)cc2-c2ccc(C(F)(F)F)cc2)cc1 | 2.5 (≈ 1.01 µg/mL) | 40 | 16 |  |
| CC(C)c1ccc(-c2cc(CN3CCCC(O)C3)nn2C(C)C)cc1 (stereo unspecified) | 1 (≈ 0.341 µg/mL) | 50 | 50 |  |
| Cc1cc(CN2CCOCC2)nn1C1CCCCC1 | 2.5 (≈ 0.658 µg/mL) | 50 | 20 |  |
| FC(F)(F)c1ccc(-c2cc(CN3CCSCC3)nn2C2CCCCC2)cc1 | 1.2 (≈ 0.491 µg/mL) | 63.1 | 53 |  |
| CC(C)c1ccc(-c2cc(CN3CCN(C(=O)OC(C)(C)C)CC3)nn2C2CCCCC2)cc1 | 1 (≈ 0.467 µg/mL) | 40 | 40 |  |
| CC(C)c1ccc(-c2cc(CN3CCC(O)CC3)nn2C2CCCCC2)cc1 | 42 (≈ 16 µg/mL) | 63 | 1.5 |  |
| FC(F)(F)c1ccc(-c2cc(CN3CCOCC3)nn2C2CCCCC2)cc1 | 2.5 (≈ 0.984 µg/mL) | 50 | 20 |  |
| Cc1c(CN2CCOCC2)nn(-c2ccc(C(C)C)cc2)c1-c1ccc(F)cc1 | 50 (≈ 19.7 µg/mL) | > 100 | > 2 |  |
| Fc1ccc(-n2nc(CN3CCOCC3)cc2-c2ccc(C(F)(F)F)cc2)cc1 | 20 (≈ 8.11 µg/mL) | 100 | 5 |  |
| COC1CCN(Cc2cc(-c3ccc(C(F)(F)F)cc3)n(C(C)C)n2)CC1 | 2.5 (≈ 0.954 µg/mL) | 79.4 | 32 |  |

| SMILES | MIC [1] [µM] | CC50 at 48 h [2] [µM] | selectivity ratio [3] | other results |
| --- | --- | --- | --- | --- |
| CC(C)c1ccc(-c2cc(CN3CCCC(O)C3)nn2-c2ccc(F)cc2)cc1 (stereo unspecified) | 20 (≈ 7.87 µg/mL) | 25.1 | 1.25 |  |
| CC(C)(C)OC(=O)N1CCN(Cc2cc(-c3ccc(C(F)(F)F)cc3)n(C3CCCCC3)n2)CC1 | 2 (≈ 0.985 µg/mL) | > 100 | > 50 |  |
| Fc1ccc(-n2nc(CN3CCN(c4ccccn4)CC3)cc2-c2ccc(C(F)(F)F)cc2)cc1 | 2 (≈ 0.963 µg/mL) | 32 | 16 |  |
| CC(C)(C)OC(=O)N1CCN(Cc2cc(-c3ccc(C(F)(F)F)cc3)n(-c3ccc(F)cc3)n2)CC1 | 4 (≈ 2.02 µg/mL) | > 100 | > 25 |  |
| COC1CCN(Cc2cc(-c3ccc(C(C)C)cc3)n(-c3ccc(F)cc3)n2)CC1 | 0.3 (≈ 0.122 µg/mL) | 31.6 | 105 | chromatographic logD [4]: 7.31; Papp at 3 h [8]: 44 ×10⁻⁶ cm/s; Activity [5]: 96.42%; solubility kinetic [6]: 152 µM (≈ 61.9 µg/mL); IC50 [7]: 6.31 µM; Activity [10]: 1.5 log10CFU |
| CC(C)c1ccc(-c2cc(CN3CCOCC3)nn2C(C)C)cc1 | 1.75 (≈ 0.573 µg/mL) | 79.4 | 45 |  |
| CC(C)c1ccc(-c2cc(CN3CCSCC3)nn2C2CCCCC2)cc1 | 1.3 (≈ 0.499 µg/mL) | 40 | 31 |  |
| COC1CCN(Cc2nn(-c3ccc(C(C)C)cc3)c(-c3ccc(F)cc3)c2C)CC1 | 50 (≈ 21.1 µg/mL) |  |  |  |
| COC1CCN(Cc2cc(-c3ccc(C(F)(F)F)cc3)n(C3CCCCC3)n2)CC1 | 1.2 (≈ 0.506 µg/mL) | 31.6 | 26 |  |
| CC(C)c1ccc(-c2cc(CN3CCOCC3)nn2C2CCCCC2)cc1 | 0.4 (≈ 0.147 µg/mL) | 63.1 | 158 | chromatographic logD [4]: 8.29; Papp at 3 h [8]: 35 ×10⁻⁶ cm/s; Activity [5]: 97.11%; solubility kinetic [6]: 78.5 µM (≈ 28.9 µg/mL); solubility at 4 h [9]: 100 µg/mL (≈ 272 µM); IC50 [7]: > 50 µM; Activity [10]: 0.4 log10CFU; CLH [11]: 3.4 mL/min/g |
| CC(C)c1ccc(-c2cc(CN3CCC(O)CC3)nn2-c2ccc(F)cc2)cc1 | 10 (≈ 3.94 µg/mL) | 20 | 2 |  |
| C[Si]1(C)CCN(Cc2cc(-c3ccc(C(F)(F)F)cc3)n(C3CCCCC3)n2)CC1 | 0.07 (≈ 0.0305 µg/mL) | 12.6 | 180 | chromatographic logD [4]: 8.49; Activity [5]: 96.32%; solubility kinetic [6]: 69 µM (≈ 30.1 µg/mL); IC50 [7]: 2.5 µM |
| CC(C)c1ccc(-c2cc(CN3CC[Si](C)(C)CC3)nn2C2CCCCC2)cc1 | 0.04 (≈ 0.0164 µg/mL) | 12.6 | 315 | Activity [5]: 97.35%; solubility kinetic [6]: 46 µM (≈ 18.8 µg/mL); IC50 [7]: 8 µM |
| Cc1c(CN2CCOCC2)cc(-c2ccc(C(C)C)cc2)n1-c1ccc(F)cc1 | 0.12 (≈ 0.0471 µg/mL) |  | 333 | chromatographic logD [4]: 8.1; Activity [5]: 98.37%; solubility kinetic [6]: < 1 µM; solubility at 4 h [9]: 5 µg/mL (≈ 12.7 µM) |
| CC(C)c1ccc(-c2cc(CN3CCN(c4ccccn4)CC3)nn2C2CCCCC2)cc1 | 0.5 (≈ 0.222 µg/mL) | 40 | 80 | logD ([4]; buffer): 9.83; Papp at 3 h [8]: < 0.3 ×10⁻⁶ cm/s; Activity [5]: 98.41%; solubility kinetic [6]: 15 µM (≈ 6.65 µg/mL); IC50 [7]: > 50 µM |
| CC(C)c1ccc(-c2cc(CN3CCN(C)CC3)nn2C2CCCCC2)cc1 | 21 (≈ 7.99 µg/mL) | 10 | 0.5 |  |
| CC(C)c1ccc(-c2cc(CN3CCN(C(=O)OC(C)(C)C)CC3)nn2-c2ccc(F)cc2)cc1 | 2 (≈ 0.957 µg/mL) | 80 | 40 |  |
| FC(F)(F)c1ccc(-c2cc(CN3CCCCC3)nn2C2CCCCC2)cc1 | 2.5 (≈ 0.979 µg/mL) | 50 | 20 |  |
| CC(C)n1nc(CN2CCOCC2)cc1-c1ccc(C(F)(F)F)cc1 | 23 (≈ 8.13 µg/mL) | > 100 | > 4 |  |
| COC1CCN(Cc2cc(C)n(C3CCCCC3)n2)CC1 | 50 (≈ 14.6 µg/mL) | > 100 | > 2 |  |
| COC1CCN(Cc2cc(-c3ccc(C(F)(F)F)cc3)n(-c3ccc(F)cc3)n2)CC1 | 0.3 (≈ 0.13 µg/mL) | 31.6 | 105 | chromatographic logD [4]: 6.67; Papp at 3 h [8]: 17 ×10⁻⁶ cm/s; Activity [5]: 96.47%; solubility kinetic [6]: 258 µM (≈ 112 µg/mL); IC50 [7]: 3.2 µM |
| COC1CCN(Cc2cc(-c3ccc(C)nc3)n(C3CCCCC3)n2)CC1 | 50 (≈ 18.4 µg/mL) | > 100 | > 2 |  |
| COC1CCCN(Cc2cc(-c3ccc(C(C)C)cc3)n(C3CCCCC3)n2)C1 (stereo unspecified) | 2.5 (≈ 0.989 µg/mL) | 20 | 8 |  |
| COC1CCN(Cc2cc(-c3ccc(C(C)C)cc3)n(C(C)C)n2)CC1 | 50 (≈ 17.8 µg/mL) |  |  |  |
| CC(C)c1ccc(-c2cc(CN3CCNCC3)nn2C2CCCCC2)cc1 | 20 (≈ 7.33 µg/mL) |  |  |  |

From ChEMBL document CHEMBL4304832, “Novel Pyrazole-Containing Compounds Active against Mycobacterium tuberculosis” (ACS Med Chem Lett, 2019)
